Starred links: 1 amine or outer side, 2 acyl side, 3 side chain; linkers in the order of their positions; H or OH if unused. Non-standard residues stand in square brackets, D forms with d. Residues, ends and D or L forms follow the SMILES beside them. Groups on a side chain read outwards from the residue. *: point of attachment. C20 diacid = O=C(O)CCCCCCCCCCCCCCCCCCC(=O)*; C18 diacid = O=C(O)CCCCCCCCCCCCCCCCC(=O)*; γGlu = O=C(O)[C@H](CCC(=O)[*:2])N[*:1]; X3 = O=C(CN(Cc1c[nH]cn1)[*:1])[*:2]; αMeF = C[C@](N)(Cc1ccccc1)C(=O)O; AEEA = NCCOCCOCC(=O)O; Aib = CC(C)(N)C(=O)O
Target: human GLP-1 receptor (hGLP-1R) (Homo sapiens, UniProt P43220)
Sequence (P43220 24-463): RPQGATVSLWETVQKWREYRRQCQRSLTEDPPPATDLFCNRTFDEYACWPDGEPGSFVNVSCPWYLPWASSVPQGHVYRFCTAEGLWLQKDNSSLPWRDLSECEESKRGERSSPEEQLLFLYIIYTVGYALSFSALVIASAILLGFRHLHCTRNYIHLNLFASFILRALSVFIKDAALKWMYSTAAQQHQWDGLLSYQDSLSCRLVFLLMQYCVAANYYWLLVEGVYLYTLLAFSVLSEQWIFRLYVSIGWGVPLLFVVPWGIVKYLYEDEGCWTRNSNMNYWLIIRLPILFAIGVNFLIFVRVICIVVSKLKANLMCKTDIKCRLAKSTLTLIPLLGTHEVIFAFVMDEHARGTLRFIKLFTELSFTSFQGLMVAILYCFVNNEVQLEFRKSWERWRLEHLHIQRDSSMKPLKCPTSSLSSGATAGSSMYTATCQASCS
Assay: cAMP production (HTRF) in CHO cells expressing hGLP-1R
Assay type: cell-based
Parameters: expressed in transfected cells
Conditions: for % Relative Potency Ratio: % GLP-1R activity relative to GLP-1 / % GlucR activity relative to glucagon; for EC50: Table 6, peptides modified at position 17, cAMP in CHO hGLP-1R cells, geometric mean, read-out: hGLP-1R EC50
Experimental: Cells were re-suspended in assay buffer at a batch-dependent optimized concentration (typically hGLP-1R cells at 1×10^5 cells/mL, hGCGR cells at 2×10^5 cells/mL).
Cells were added to the assay plate using a multidrop dispenser and incubated at room temperature for 30 minutes before measuring the cAMP level using a cAMP dynamic 2 homogeneous time resolved Fluorescence (HTRF) kit (Cisbio Bioassays #62AM4PEJ) following the two-step protocol as per manufacturer's recommendations. In brief, anti-cAMP cryptate (donor fluorophore) and cAMP-d2 (acceptor fluorophore) were made up separately by diluting each 1 in 20 in conjugate and lysis buffer provided in the kit. Anti-CAMP cryptate was added to all wells of the assay plate, followed by cAMP-d2 added to all wells except non-specific binding (NSB) wells (to which conjugate and lysis buffer was added).
Data was transformed to % Delta F as described in the manufacturer's guidelines and analyzed by 4-parameter logistic fit to determine EC50 values.

Compound | % Relative Potency Ratio | other results
CC[C@H](C)[C@H](NC(=O)[C@H](Cc1c[nH]c2ccccc12)NC(=O)[C@H](CCCCNC(=O)CC[C@H](NC(=O)CC[C@H](NC(=O)CCOCCOCCNC(=O)CC[C@H](NC(=O)CC[C@H](NC(=O)CCCCCCCCCCCCCCCCCCC(=O)O)C(=O)O)C(=O)O)C(=O)O)C(=O)O)NC(=O)[C@@H](NC(=O)[C@H](Cc1ccccc1)NC(=O)[C@H](CC(=O)O)NC(=O)[C@H](CCC(N)=O)NC(=O)[C@H](C)NC(=O)[C@H](C)NC(=O)[C@H](CCC(N)=O)NC(=O)[C@H](CO)NC(=O)[C@H](CC(=O)O)NC(=O)[C@H](CC(C)C)NC(=O)[C@](C)(Cc1ccccc1)NC(=O)[C@H](CCCCN)NC(=O)[C@H](CO)NC(=O)[C@@H](NC(=O)[C@H](CC(=O)O)NC(=O)[C@H](CO)NC(=O)[C@@H](NC(=O)[C@](C)(Cc1ccccc1)NC(=O)[C@H](CO)NC(=O)CNC(=O)[C@H](Cc1c[nH]cn1)NC(=O)C(C)(C)NC(=O)[C@@H](N)Cc1c[nH]cn1)[C@@H](C)O)C(C)C)C(C)C)C(=O)N[C@@H](C)C(=O)N[C@@H](CC(N)=O)C(=O)N[C@H](C(N)=O)[C@@H](C)O [Peptide 357] | 1.2 | 
CC[C@H](C)[C@H](NC(=O)[C@H](Cc1c[nH]c2ccccc12)NC(=O)[C@H](CCCCNC(=O)COCCOCCNC(=O)COCCOCCNC(=O)CC[C@H](NC(=O)CC[C@H](NC(=O)CCCCCCCCCCCCCCCCCCC(=O)O)C(=O)O)C(=O)O)NC(=O)[C@@H](NC(=O)[C@H](Cc1ccccc1)NC(=O)[C@H](CC(=O)O)NC(=O)[C@H](CCC(N)=O)NC(=O)[C@H](C)NC(=O)[C@H](C)NC(=O)[C@H](CCCNC(=N)N)NC(=O)[C@H](CO)NC(=O)[C@H](CC(=O)O)NC(=O)[C@H](CC(C)C)NC(=O)[C@](C)(Cc1ccccc1)NC(=O)[C@H](CCCCN)NC(=O)[C@H](CO)NC(=O)[C@@H](NC(=O)[C@H](CC(=O)O)NC(=O)[C@H](CO)NC(=O)[C@@H](NC(=O)[C@](C)(Cc1ccccc1)NC(=O)[C@H](CO)NC(=O)CNC(=O)[C@H](Cc1c[nH]cn1)NC(=O)[C@H](CO)NC(=O)CNCc1c[nH]cn1)[C@@H](C)O)C(C)C)C(C)C)C(=O)N[C@@H](C)C(=O)N[C@@H](CC(N)=O)C(=O)N[C@H](C(N)=O)[C@@H](C)O [Peptide 380] (H-[X3]SHGS[αMeF]TSDVSK[αMeF]LDSRAAQDFVK([AEEA-AEEA-γGlu-γGlu-C20 diacid])WIANT-NH2) | 33.9 | 
CCCCCCCCCCCCCCCCCC(=O)N[C@@H](CCC(=O)N[C@@H](CCC(=O)NCCOCCOCCC(=O)NCCOCCOCCC(=O)NCCCC[C@H](NC(=O)[C@H](CC(=O)O)NC(=O)[C@H](CO)NC(=O)[C@@H](NC(=O)[C@](C)(Cc1ccccc1)NC(=O)[C@H](CO)NC(=O)CNC(=O)[C@H](CCC(N)=O)NC(=O)[C@H](CO)NC(=O)[C@@H](N)Cc1c[nH]cn1)[C@@H](C)O)C(=O)N[C@@H](CO)C(=O)N[C@@H](CCCCN)C(=O)N[C@H](C(=O)N[C@@H](CC(C)C)C(=O)N[C@@H](CC(=O)O)C(=O)N[C@@H](CO)C(=O)N[C@H](C(=O)N[C@@H](C)C(=O)N[C@@H](C)C(=O)N[C@@H](CCC(N)=O)C(=O)N[C@@H](CC(=O)O)C(=O)N[C@@](C)(Cc1ccccc1)C(=O)N[C@H](C(=O)N[C@@H](CCC(=O)O)C(=O)NC(C)(C)C(=O)N[C@@H](CC(C)C)C(=O)N[C@@H](C)C(=O)N[C@@H](CC(N)=O)C(=O)N[C@H](C(N)=O)[C@@H](C)O)C(C)C)C(C)(C)CCNC(=N)N)C(c1ccccc1)c1ccccc1)C(=O)O)C(=O)O [Peptide 393, HSQGS(αMePhe)TSDK((PEG)2-(PEG)2-γE-yE-Stearoyl)10SK(Dip)LDS(β-dimethylArg)AAQD(αMePhe)VE(Aib)LANT-amide] | 9.3 | 
CC(C)C[C@H](NC(=O)[C@H](Cc1c[nH]c2ccccc12)NC(=O)[C@H](CCCNC(=N)N)NC(=O)[C@@H](NC(=O)[C@H](Cc1ccccc1)NC(=O)[C@H](CC(=O)O)NC(=O)[C@H](CCC(N)=O)NC(=O)[C@H](C)NC(=O)[C@H](CCCNC(=N)N)NC(=O)[C@H](CCCCNC(=O)COCCOCCNC(=O)COCCOCCNC(=O)CC[C@H](NC(=O)CCCCCCCCCCCCCCCCCCC(=O)O)C(=O)O)NC(=O)[C@@H](NC(=O)[C@H](CC(=O)O)NC(=O)[C@H](CC(C)C)NC(=O)[C@](C)(Cc1ccccc1)NC(=O)[C@H](CCCCN)NC(=O)[C@H](CO)NC(=O)[C@@H](NC(=O)[C@H](CC(=O)O)NC(=O)[C@H](CO)NC(=O)[C@@H](NC(=O)[C@H](Cc1ccccc1)NC(=O)[C@@H](NC(=O)CNC(=O)[C@H](CCC(N)=O)NC(=O)C(C)(C)NC(=O)[C@@H](N)Cc1c[nH]cn1)[C@@H](C)O)[C@@H](C)O)C(C)C)[C@@H](C)O)C(C)C)C(=O)N[C@@H](CCC(=O)O)C(=O)N[C@@H](C)C(=O)NC(C)(C)C(=O)NCC(=O)O [Peptide 407] |  | % Relative Potency Ratio (Table 6): 4.4
CC(C)C[C@H](NC(=O)[C@H](Cc1c[nH]c2ccccc12)NC(=O)[C@H](CCC(N)=O)NC(=O)[C@@H](NC(=O)[C@H](Cc1ccccc1)NC(=O)[C@H](CC(=O)O)NC(=O)[C@H](CCCNC(=N)N)NC(=O)[C@H](C)NC(=O)[C@H](CCCNC(=N)N)NC(=O)[C@H](CCCCNC(=O)COCCOCCNC(=O)COCCOCCNC(=O)CC[C@H](NC(=O)CCCCCCCCCCCCCCCCCCC(=O)O)C(=O)O)NC(=O)[C@@H](NC(=O)[C@H](CCC(=O)O)NC(=O)[C@H](CC(C)C)NC(=O)[C@](C)(Cc1ccccc1)NC(=O)[C@H](CCCCN)NC(=O)[C@H](CO)NC(=O)[C@@H](NC(=O)[C@H](CC(=O)O)NC(=O)[C@H](CO)NC(=O)[C@@H](NC(=O)[C@H](Cc1ccccc1)NC(=O)[C@@H](NC(=O)CNC(=O)[C@H](CCC(N)=O)NC(=O)C(C)(C)NC(=O)[C@@H](N)Cc1c[nH]cn1)[C@@H](C)O)[C@@H](C)O)C(C)C)[C@@H](C)O)C(C)C)C(=O)N[C@@H](CC(C)C)C(=O)N[C@@H](CCC(=O)O)C(=O)NC(C)(C)C(=O)NCC(=O)O [Peptide 444] |  | % Relative Potency Ratio (Table 6): 14.1
CC(C)C[C@H](NC(=O)[C@H](CC(C)C)NC(=O)[C@H](Cc1c[nH]c2ccccc12)NC(=O)[C@H](CCCNC(=N)N)NC(=O)[C@@H](NC(=O)[C@H](Cc1ccccc1)NC(=O)[C@H](CC(=O)O)NC(=O)[C@H](CCC(N)=O)NC(=O)[C@H](C)NC(=O)[C@H](CCCNC(=N)N)NC(=O)[C@H](CCCCNC(=O)COCCOCCNC(=O)COCCOCCNC(=O)CC[C@H](NC(=O)CCCCCCCCCCCCCCCCC(=O)O)C(=O)O)NC(=O)[C@H](CCCNC(=N)N)NC(=O)[C@H](CC(=O)O)NC(=O)[C@H](CC(C)C)NC(=O)[C@](C)(Cc1ccccc1)NC(=O)[C@H](CCCCN)NC(=O)[C@H](CO)NC(=O)[C@@H](NC(=O)[C@H](CC(=O)O)NC(=O)[C@H](CO)NC(=O)[C@@H](NC(=O)[C@H](Cc1ccccc1)NC(=O)[C@@H](NC(=O)CNC(=O)[C@H](CCC(N)=O)NC(=O)C(C)(C)NC(=O)[C@@H](N)Cc1c[nH]cn1)[C@@H](C)O)[C@@H](C)O)C(C)C)C(C)C)C(=O)N[C@@H](C)C(=O)N[C@@H](CCC(=O)O)C(N)=O [Peptide 461] (H-H[Aib]QGTFTSDVSK[αMeF]LDRK([AEEA-AEEA-γGlu-C18 diacid])RAQDFVRWLLAE-NH2; N-terminus assumed) |  | EC50: 167 pM
CC(C)C[C@H](NC(=O)[C@H](Cc1c[nH]c2ccccc12)NC(=O)[C@H](CCC(N)=O)NC(=O)[C@@H](NC(=O)[C@H](Cc1ccccc1)NC(=O)[C@H](CC(=O)O)NC(=O)[C@H](CCC(N)=O)NC(=O)[C@H](C)NC(=O)[C@H](CCCNC(=N)N)NC(=O)[C@H](CCCCNC(=O)COCCOCCNC(=O)COCCOCCNC(=O)CC[C@H](NC(=O)CC[C@H](NC(=O)CCCCCCCCCCCCCCCCC(=O)O)C(=O)O)C(=O)O)NC(=O)[C@H](CO)NC(=O)[C@H](CC(=O)O)NC(=O)[C@H](CC(C)C)NC(=O)[C@](C)(Cc1ccccc1)NC(=O)[C@H](CCCCN)NC(=O)[C@H](CO)NC(=O)[C@@H](NC(=O)[C@H](CC(=O)O)NC(=O)[C@H](CO)NC(=O)[C@@H](NC(=O)[C@H](Cc1ccccc1)NC(=O)[C@@H](NC(=O)CNC(=O)[C@H](CCC(N)=O)NC(=O)C(C)(C)NC(=O)[C@@H](N)Cc1c[nH]cn1)[C@@H](C)O)[C@@H](C)O)C(C)C)C(C)C)C(=O)N[C@@H](CC(C)C)C(=O)NC(C)(C)C(=O)N[C@H](C(N)=O)[C@@H](C)O [Peptide 463] (H-H[Aib]QGTFTSDVSK[αMeF]LDSK([AEEA-AEEA-γGlu-γGlu-C18 diacid])RAQDFVQWLL[Aib]T-NH2; N-terminus assumed) |  | EC50: 274 pM
H(Aib)HGS(αMePhe)TSDK(O20C-O2OC-γE-γE-C20diacid)10SK(αMePhe)LDSRAAQD(αMePhe)VQ(Aib)IANT-amide [Peptide 391] | 49.1 | 

Source: patent US20250353891A1 (MEDIMMUNE LIMITED, priority 2022, published 2025)
